Results as given in ChEMBL document CHEMBL1156814, “Highly suppressing wild-type HIV-1 and Y181C mutant HIV-1 strains by 10-chloromethyl-11-demethyl-12-oxo-calanolide A with druggable profile” (J Med Chem, 2010).

What was measured:
[1] = system: Human immunodeficiency virus 1; test: Antiviral activity against 100 TCID50 HIV1 infected in human TZM-b1 cells assessed as inhibition of viral replication by pseudovirus based assay; assay type: functional, organism-based
Mus musculus [2] = test: Toxicity in ICR mouse assessed as mortality at 1000 mg/kg, ig after 4 days administered as single dose; assay type: organism-based; set-up: dose 1000 mg/kg, route intragastric; settings: in vivo, po, 96 h
Mus musculus [3] = test: Toxicity in ICR mouse assessed as mortality at 1000 mg/kg, ig after 7 days administered as single dose; assay type: organism-based; set-up: dose 1000 mg/kg, route intragastric; settings: in vivo, po, 168 h
Mus musculus [4] = test: Toxicity in ICR mouse assessed as mortality at 1000 mg/kg, ig after 11 days administered as single dose; assay type: organism-based; set-up: dose 1000 mg/kg, route intragastric; settings: in vivo, po, 264 h
Mus musculus [5] = test: Toxicity in ICR mouse assessed as mortality at 1000 mg/kg, ig after 14 days administered as single dose; assay type: organism-based; set-up: dose 1000 mg/kg, route intragastric; settings: in vivo, po, 336 h
Mus musculus [6] = test: Toxicity in ICR mouse assessed as body weight at 4640 mg/kg, ig after 1 day administered as single dose (reference value: 21.1+/-0.9); assay type: organism-based; set-up: dose 4640 mg/kg, route intragastric; settings: in vivo, po, 24 h
Mus musculus [7] = test: Toxicity in ICR mouse assessed as body weight at 4640 mg/kg, ig after 4 days administered as single dose (reference value: 21.1+/-0.9); assay type: organism-based; set-up: dose 4640 mg/kg, route intragastric; settings: in vivo, po, 96 h
Mus musculus [8] = test: Toxicity in ICR mouse assessed as body weight at 4640 mg/kg, ig after 7 days administered as single dose (reference value: 21.1+/-0.9); assay type: organism-based; set-up: dose 4640 mg/kg, route intragastric; settings: in vivo, po, 168 h
Mus musculus [9] = test: Toxicity in ICR mouse assessed as body weight at 2150 mg/kg, ig after 1 day administered as single dose (reference value: 20.9+/-0.9); assay type: organism-based; set-up: dose 2150 mg/kg, route intragastric; settings: in vivo, po, 24 h
Mus musculus [10] = test: Toxicity in ICR mouse assessed as body weight at 2150 mg/kg, ig after 4 days administered as single dose (reference value: 20.9+/-0.9); assay type: organism-based; set-up: dose 2150 mg/kg, route intragastric; settings: in vivo, po, 96 h
Mus musculus [11] = test: Toxicity in ICR mouse assessed as body weight at 2150 mg/kg, ig after 7 days administered as single dose (reference value: 20.9+/-0.9); assay type: organism-based; set-up: dose 2150 mg/kg, route intragastric; settings: in vivo, po, 168 h
Mus musculus [12] = test: Toxicity in ICR mouse assessed as body weight at 1000 mg/kg, ig after 1 day administered as single dose (reference value: 21.2+/-0.8); assay type: organism-based; set-up: dose 1000 mg/kg, route intragastric; settings: in vivo, po, 24 h
Mus musculus [13] = test: Toxicity in ICR mouse assessed as body weight at 1000 mg/kg, ig after 4 days administered as single dose (reference value: 21.2+/-0.8); assay type: organism-based; set-up: dose 1000 mg/kg, route intragastric; settings: in vivo, po, 96 h
Mus musculus [14] = test: Toxicity in ICR mouse assessed as body weight at 1000 mg/kg, ig after 7 days administered as single dose (reference value: 21.2+/-0.8); assay type: organism-based; set-up: dose 1000 mg/kg, route intragastric; settings: in vivo, po, 168 h
[15] = Toxicity in African green monkey Vero cells; assay type: cell-based; settings: chlorocebus sabaeus
[16] = Selectivity index, ratio of IC50 for African green monkey Vero cells to EC50 for HIV1; assay type: toxicity, cell-based; settings: read-out: Selectivity Index
[17] = system: Human immunodeficiency virus 1; test: Antiviral activity against HIV1 PNL4-3; assay type: functional, organism-based; settings: Human immunodeficiency virus 1, PNL4-3
[18] = system: Human immunodeficiency virus 1; test: Antiviral activity against HIV1 with reverse transcriptase K103N mutation; assay type: functional, organism-based
[19] = system: Human immunodeficiency virus 1; test: Antiviral activity against HIV1 with reverse transcriptase Y181C mutation; assay type: functional, organism-based
[20] = system: Human immunodeficiency virus 1; test: Antiviral activity against HIV1 with reverse transcriptase Y181L mutation; assay type: functional, organism-based
[21] = system: Human immunodeficiency virus 1; test: Antiviral activity against HIV1 with reverse transcriptase G190A mutation; assay type: functional, organism-based
[22] = system: Human immunodeficiency virus 1; test: Antiviral activity against HIV1 with reverse transcriptase […] mutation; assay type: functional, organism-based
Rattus norvegicus [23] = test: AUC in Wistar rat at 50 mg/kg, po; assay type: ADME, organism-based, Plasma; set-up: dose 50 mg/kg, route oral; settings: in vivo
[24] = Mean residence time in Wistar rat at 50 mg/kg, po; assay type: ADME, organism-based; set-up: dose 50 mg/kg, route oral; settings: in vivo
[25] = Half life in Wistar rat at 50 mg/kg, po; assay type: ADME, organism-based; set-up: dose 50 mg/kg, route oral; settings: in vivo
[26] = Tmax in Wistar rat at 50 mg/kg, po; assay type: ADME, organism-based; set-up: dose 50 mg/kg, route oral; settings: in vivo
[27] = Cmax in Wistar rat at 50 mg/kg, po; assay type: ADME, organism-based; set-up: dose 50 mg/kg, route oral; settings: in vivo
Rattus norvegicus [28] = test: AUC in Wistar rat at 5 mg/kg, iv; assay type: ADME, organism-based, Plasma; set-up: dose 5 mg/kg, route intravenous; settings: in vivo
[29] = Mean residence time in Wistar rat at 5 mg/kg, iv; assay type: ADME, organism-based; set-up: dose 5 mg/kg, route intravenous; settings: in vivo
[30] = Half life in Wistar rat at 5 mg/kg, iv; assay type: ADME, organism-based; set-up: dose 5 mg/kg, route intravenous; settings: in vivo
[31] = Tmax in Wistar rat at 5 mg/kg, iv; assay type: ADME, organism-based; set-up: dose 5 mg/kg, route intravenous; settings: in vivo
[32] = Cmax in Wistar rat at 5 mg/kg, iv; assay type: ADME, organism-based; set-up: dose 5 mg/kg, route intravenous; settings: in vivo
[33] = Oral bioavailability in Wistar rat at 50 mg/kg; assay type: ADME, organism-based; settings: in vivo
Mus musculus [34] = test: Toxicity in ICR mouse assessed as mortality at 4640 mg/kg, ig after 1 day administered as single dose; assay type: organism-based; set-up: dose 4640 mg/kg, route intragastric; settings: in vivo, po, 24 h
Mus musculus [35] = test: Toxicity in ICR mouse assessed as mortality at 4640 mg/kg, ig after 4 days administered as single dose; assay type: organism-based; set-up: dose 4640 mg/kg, route intragastric; settings: in vivo, po, 96 h
Mus musculus [36] = test: Toxicity in ICR mouse assessed as mortality at 4640 mg/kg, ig after 7 days administered as single dose; assay type: organism-based; set-up: dose 4640 mg/kg, route intragastric; settings: in vivo, po, 168 h
Mus musculus [37] = test: Toxicity in ICR mouse assessed as mortality at 4640 mg/kg, ig after 11 days administered as single dose; assay type: organism-based; set-up: dose 4640 mg/kg, route intragastric; settings: in vivo, po, 264 h
Mus musculus [38] = test: Toxicity in ICR mouse assessed as mortality at 4640 mg/kg, ig after 14 days administered as single dose; assay type: organism-based; set-up: dose 4640 mg/kg, route intragastric; settings: in vivo, po, 336 h
Mus musculus [39] = test: Toxicity in ICR mouse assessed as mortality at 2150 mg/kg, ig after 1 day administered as single dose; assay type: organism-based; set-up: dose 2150 mg/kg, route intragastric; settings: in vivo, po, 24 h
Mus musculus [40] = test: Toxicity in ICR mouse assessed as mortality at 2150 mg/kg, ig after 4 days administered as single dose; assay type: organism-based; set-up: dose 2150 mg/kg, route intragastric; settings: in vivo, po, 96 h
Mus musculus [41] = test: Toxicity in ICR mouse assessed as mortality at 2150 mg/kg, ig after 7 days administered as single dose; assay type: organism-based; set-up: dose 2150 mg/kg, route intragastric; settings: in vivo, po, 168 h
Mus musculus [42] = test: Toxicity in ICR mouse assessed as mortality at 2150 mg/kg, ig after 11 days administered as single dose; assay type: organism-based; set-up: dose 2150 mg/kg, route intragastric; settings: in vivo, po, 264 h
Mus musculus [43] = test: Toxicity in ICR mouse assessed as mortality at 2150 mg/kg, ig after 14 days administered as single dose; assay type: organism-based; set-up: dose 2150 mg/kg, route intragastric; settings: in vivo, po, 336 h
Mus musculus [44] = test: Toxicity in ICR mouse assessed as mortality at 1000 mg/kg, ig after 1 day administered as single dose; assay type: organism-based; set-up: dose 1000 mg/kg, route intragastric; settings: in vivo, po, 24 h
[45] = Toxicity in human TZM-b1 cells; assay type: cell-based
[46] = Human immunodeficiency virus 1, TZM-b1, read-out: EC50

CCCc1cc(=O)oc2c3c(c4c(c12)OC(C)(C)C=C4)OC(CNS(=O)(=O)c1ccc(OC)cc1)CC3=O (stereo unspecified)
EC50 ([1]; tzm-b1): Not Active

CCCc1cc(=O)oc2c3c(c4c(c12)OC(C)(C)C=C4)OC(CN(C)C)CC3=O (stereo unspecified)
EC50 ([1]; tzm-b1): Not Active

CCCc1cc(=O)oc2c3c(c4c(c12)OC(C)(C)C=C4)OC(CCl)CC3=O (stereo unspecified)
Activity (Mus musculus [2]): Non-toxic | Activity (Mus musculus [3]): Non-toxic | Activity (Mus musculus [4]): Non-toxic | Activity (Mus musculus [5]): Non-toxic | Activity (Mus musculus [6]): 23.2 g | Activity (Mus musculus [7]): 27.5 g | Activity (Mus musculus [8]): 29.9 g | Activity (Mus musculus [9]): 23 g | Activity (Mus musculus [10]): 28 g | Activity (Mus musculus [11]): 31.4 g | Activity (Mus musculus [12]): 23 g | Activity (Mus musculus [13]): 28.5 g | Activity (Mus musculus [14]): 31.1 g | EC50 [1, 46]: 0.0074 µM | CC50 [15]: 10.5 µM | selectivity ratio [16]: 1420 | EC50 [17]: 0.0074 µM | EC50 [18]: 0.316 µM | EC50 [19]: 0.00046 µM | EC50 [20]: 6.13 µM | EC50 [21]: 0.0439 µM | EC50 [22]: 0.104 µM | AUC (Rattus norvegicus [23]): 4.7 ug/hr.ml | MRT [24]: 9.2 h | half-life [25]: 3.8 h | Tmax [26]: 8 h | Cmax [27]: 0.34 µg/mL | AUC (Rattus norvegicus [28]): 1.5 ug/hr.ml | MRT [29]: 1.7 h | half-life [30]: 1.9 h | Tmax [31]: 1.8 min | Cmax [32]: 0.93 µg/mL | bioavailability [33]: 32.7% | Activity (Mus musculus [34]): Non-toxic | Activity (Mus musculus [35]): Non-toxic | Activity (Mus musculus [36]): Non-toxic | Activity (Mus musculus [37]): Non-toxic | Activity (Mus musculus [38]): Non-toxic | Activity (Mus musculus [39]): Non-toxic | Activity (Mus musculus [40]): Non-toxic | Activity (Mus musculus [41]): Non-toxic | Activity (Mus musculus [42]): Non-toxic | Activity (Mus musculus [43]): Non-toxic | Activity (Mus musculus [44]): Non-toxic

CCCc1cc(=O)oc2c3c(c4c(c12)OC(C)(C)C=C4)OC(C(F)(F)F)CC3=O (stereo unspecified)
EC50 [1, 46]: 14.9 µM

CCCc1cc(=O)oc2c3c(c4c(c12)OC(C)(C)C=C4)OC(CN1CCCCC1)CC3=O (stereo unspecified)
EC50 ([1]; tzm-b1): Not Active

CCCc1cc(=O)oc2c3c(c4c(c12)OC(C)(C)C=C4)O[C@H]1C[C@H]1C3=O (relative stereo) [CIS-10,11-CYCLOPROPYL-12-OXO-CALANOLIDE A]
EC50 [1, 46]: 0.0141 µM | CC50 [15]: 7.14 µM | selectivity ratio [16]: 709

CCCc1cc(=O)oc2c3c(c4c(c12)OC(C)(C)C=C4)OC(CN)CC3=O (stereo unspecified) [1'-AMINEMETHYL-11-DEMETHYL-12-OXO-CALANOLIDE A]
EC50 ([1]; tzm-b1): Not Active

CCCc1cc(=O)oc2c3c(c4c(c12)OC(C)(C)C=C4)OC(CN=[N+]=[N-])CC3=O (stereo unspecified) [1'-AZIDEMETHYL-11-DEMETHYL-12-OXO-CALANOLIDE A]
EC50 ([1]; tzm-b1): Not Active | Activity [45]: Toxic

CCCc1cc(=O)oc2c3c(c4c(c12)OC(C)(C)C=C4)O[C@H](C)[C@@H](C)[C@@H]3O [CALANOLIDE A]
EC50 [1, 46]: 0.1 µM | selectivity ratio [16]: 16 | EC50 [17]: 0.0114 µM | EC50 [18]: 0.464 µM | EC50 [19]: 10.6 µM | EC50 [20]: 7.17 µM | EC50 [21]: 0.159 µM | EC50 [22]: 0.0022 µM

Cc1ccnc2c1NC(=O)c1cccnc1N2C1CC1 [NEVIRAPINE]
EC50 [1, 46]: 0.0082 µM | CC50 [15]: 27.1 µM | selectivity ratio [16]: 3300 | EC50 [17]: 0.0975 µM | EC50 [18]: 13.4 µM | EC50 [19]: 0.0426 µM | EC50 [20]: 10.5 µM | EC50 [21]: 0.385 µM | EC50 [22]: 6.15 µM
